# Experimental data published in patent US5405861A, “Triazole compounds and antifungal compositions thereof” (Takeda Chemical Industries, Co., Ltd., priority 1989, dated 1995).
# Columns and labels:
# [1] = tested on: Candida albicans (IFO 0538); experiment: Antifungal activity against Candida albicans, paper disc growth inhibition zone (Tables 5 and 6); type: cell-based; conditions: 48 h, pH 7, B medium (yeast nitrogen base agar, pH 7.0), 28° C., 2 days incubation; read-out: Inhibition zone diameter
# Method: (§1) The antifungal activities of the compounds (I) were evaluated by the following method: a sheet of filter paper disc (manufactured by Toyo Seisakusho, 8 mm in diameter) soaked in a 1000 μg/ml solution of a compound (I) in methanol was placed on an agar plate, which was incubated at 28° C. for 2 days, and the diameter of the growth inhibition zone around the filter paper disc was measured. The following culture media were used:
# (§2) A: yeast nitrogen base agar medium
# B: yeast nitrogen base agar medium (pH 7.0)
# [2] = tested on: Aspergillus niger IFO 4066; experiment: Antifungal activity, paper disc growth inhibition zone (Table 4); type: cell-based; conditions: IFO4066, 48 h, medium A, 28° C., 2 days, disc soaked in 1000 μg/ml solution in methanol, read-out: Inhibition zone diameter
# Method: as §1, §2
# [3] = tested on: Aspergillus fumigatus IFO 6344; experiment: as above; type: cell-based; conditions: IFO6344, 48 h, medium A, 28° C., 2 days, disc soaked in 1000 μg/ml solution in methanol, read-out: Inhibition zone diameter
# Method: as §1, §2
# [4] = tested on: Candida albicans (Ca--O) IFO 0583; experiment: as above; type: cell-based; conditions: IFO0583, 48 h, medium A, 28° C., 2 days, disc soaked in 1000 μg/ml solution in methanol, read-out: Inhibition zone diameter
# Method: as §1, §2
# [5] = tested on: Penicillium chrysogenum IFO 4626; experiment: as above; type: cell-based; conditions: IFO4626, 48 h, medium A, 28° C., 2 days, disc soaked in 1000 μg/ml solution in methanol, read-out: Inhibition zone diameter
# Method: as §1, §2
# [6] = tested on: Candida albicans IFO 0583; experiment: as above; type: cell-based; conditions: IFO0583, 48 h, medium A, 28° C., 2 days, disc soaked in 1000 μg/ml solution in methanol, read-out: Inhibition zone diameter
# Method: as §1, §2
# [7] = tested on: Trichophyton rubrum IFO 6467; experiment: as above; type: cell-based; conditions: IFO6467, 48 h, medium C (Sabouraud agar), 28° C., 2 days, disc soaked in 1000 μg/ml solution in methanol, read-out: Inhibition zone diameter
# Method: as §1, with “measured.” for “measured. The following culture media were used:”
# [8] = tested on: Microsporum gypseum IFO 6075; experiment: as above; type: cell-based; conditions: Nannizzia gypsea, IFO6075, 48 h; medium C (Sabouraud agar), 28° C., 2 days, disc soaked in 1000 μg/ml solution in methanol; read-out: Inhibition zone diameter
# Method: as §1, with “measured.” for “measured. The following culture media were used:”
# [9] = tested on: Trichophyton mentagrophytes IFO 7522; experiment: as above; type: cell-based; conditions: IFO7522, 48 h, medium C (Sabouraud agar), 28° C., 2 days, disc soaked in 1000 μg/ml solution in methanol, read-out: Inhibition zone diameter
# Method: as §1, with “measured.” for “measured. The following culture media were used:”
# [10] = tested on: Candida albicans; experiment: Infection-preventing effect in experimental infection in mice, Method 1 (Table 7-1); type: in vivo, Crj:CDF1 mice; conditions: Candida albicans, sc, 168 h, s.c., given 0 and 2 hours after infection; survival 7 days after infection; total dose; read-out: ED50
# Method: Method 1 (Table 7-1): To 5-week-old Crj:CDF1 mice the minimum lethal dose of Candida albicans was inoculated intravenously. The test drug was given twice 0 and 2 hours after infection. The effectiveness of the drug was expressed in ED50 values calculated by the Reed and Muench method from the survival rate 7 days after infection. The ED50 values were calculated based on the total dose given on the two occasions.
Compound,zone of inhibition at 1000 µg/mL [1],zone of inhibition at 1000 µg/mL [2],zone of inhibition at 1000 µg/mL [3],zone of inhibition at 1000 µg/mL [4],zone of inhibition at 1000 µg/mL [5],zone of inhibition at 1000 µg/mL [6],zone of inhibition at 1000 µg/mL [7],zone of inhibition at 1000 µg/mL [8],zone of inhibition at 1000 µg/mL [9],ED50 [10]
C[C@@H](Sc1nc2c(s1)CCC2)[C@](O)(Cn1cncn1)c1ccc(F)cc1F (relative stereo) [Compound 12],25 mm,20 mm,38 mm,41 mm,15 mm,42 mm,35 mm,35 mm,32 mm,2.5 mg/kg
C[C@@H](SCc1ccncc1)[C@](O)(Cn1cncn1)c1ccc(F)cc1F (relative stereo) [Compound 15],25 mm,29 mm,30 mm,32 mm,23 mm,34 mm,60 mm,45 mm,50 mm,2.5 mg/kg
